Source: PubChem BioAssay (NCI)
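Interpolation was linear, between the two tested concentrations surrounding the appropriate level; five concentrations were tested over 48 hours in 96-well plates. TGI: concentration producing complete growth inhibition.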

Experiments:
Experiment in all cases: inhibition of tumour cell growth, NCI panel, 48 h
[1] = tested on: PC-3 prostate
[2] = tested on: NCI-H522 lung
[3] = tested on: HT29 colon
[4] = tested on: SK-MEL-2 melanoma
[5] = tested on: KM12 colon
[6] = tested on: HOP-62 NSCLC
[7] = tested on: MOLT-4 leukemia
[8] = tested on: NCI-H226 lung
[9] = tested on: NCI-H23 lung
[10] = tested on: NCI-H460 lung
[11] = tested on: MDA-MB-435
[12] = tested on: HOP-92 NSCLC
[13] = tested on: OVCAR-4 ovarian
[14] = tested on: SK-MEL-5 melanoma
[15] = tested on: A498 renal
[16] = tested on: SF-268 CNS
[17] = tested on: NCI/ADR-RES ovarian
[18] = tested on: BT-549 breast
[19] = tested on: A549 NSCLC
[20] = tested on: ACHN renal
[21] = tested on: MDA-N
[22] = tested on: IGROV1 ovarian
[23] = tested on: MCF7 breast
[24] = tested on: UACC-257 melanoma
[25] = tested on: CAKI-1 renal
[26] = tested on: RXF 393 renal
[27] = tested on: SNB-19 CNS
[28] = tested on: HCT-116 colon
[29] = tested on: K-562 leukemia
[30] = tested on: SN12C renal
[31] = tested on: DU-145 prostate
[32] = tested on: OVCAR-5 ovarian
[33] = tested on: HCT-15 colon
[34] = tested on: COLO 205 colon
[35] = tested on: SF-295 CNS
[36] = tested on: SF-539 CNS
[37] = tested on: HL-60(TB) leukemia
[38] = tested on: OVCAR-8 ovarian
[39] = tested on: 786-0 renal
[40] = tested on: EKVX NSCLC
[41] = tested on: UACC-62 melanoma
[42] = tested on: RPMI-8226 leukemia
[43] = tested on: MALME-3M melanoma
[44] = tested on: SK-OV-3 ovarian
[45] = tested on: HS 578T breast
[46] = tested on: SK-MEL-28 melanoma
[47] = tested on: HCC-2998 colon
[48] = tested on: T-47D breast
[49] = tested on: UO-31 renal
[50] = tested on: CCRF-CEM leukemia
[51] = tested on: MDA-MB-231 breast
[52] = tested on: SR leukemia
[53] = tested on: TK-10 renal
[54] = tested on: U251 CNS
[55] = tested on: OVCAR-3 ovarian
[56] = tested on: M14 melanoma
[57] = tested on: SW-620 colon
[58] = tested on: SNB-75 CNS
[59] = tested on: LOX IMVI melanoma

Measured: TGI

Cc1cc(S(=O)(=O)NC(=C(C#N)C#N)[n+]2ccc(N(C)C)cc2)c([S-])cc1Cl
not listed: [57] | [58] | [59]
> 100 µM: all other assays above

CCN1C(=S)n2cccc2C1CC(=O)c1ccc(Cl)cc1 (centres undefined)
90.1 µM: [7]
not listed: [8] | [14] | [34] | [36] | [50]
> 100 µM: all other assays above

O=C1c2sc(-c3ccc(F)cc3)cc2-n2cccc21
32.2 µM: [39]
73.1 µM: [26]
52.1 µM: [16]
82.2 µM: [8]
63 µM: [44]
62.8 µM: [15]
34.5 µM: [25]
37.3 µM: [6]
38.3 µM: [22]
39.6 µM: [27]
58.7 µM: [28]
40.2 µM: [54]
43.7 µM: [58]
93.9 µM: [35]
74.2 µM: [29]
50.7 µM: [53]
49.6 µM: [30]
86.3 µM: [51]
62.7 µM: [45]
not listed: [9] | [12] | [36] | [37]
> 100 µM: all other assays above

CNC1C(O)C(NC)C2OC3(O)C(=O)CC(C)OC3OC2C1O (centres undefined)
not listed: [15] | [43]
> 100 µM: all other assays above

CCOC(=O)N1CC2(C)C=CC1C(C(=O)OC)C2 (centres undefined)
not listed: [12] | [36]
> 100 µM: all other assays above

Cc1ccccc1N=CN(C)C
81.2 µM: [55]
94.2 µM: [2]
44.4 µM: [29]
58.2 µM: [42]
39 µM: [37]
61.8 µM: [9]
71.1 µM: [24]
43.6 µM: [14]
not listed: [5] | [10] | [47] | [57]
> 100 µM: all other assays above

CCc1n[nH]c(=O)n1N1C(=O)CCC1=O
not listed: [9] | [12] | [36] | [37]
> 100 µM: all other assays above
